Key:
Format in all cases: cell-based, mouse
[1] = system: β-galactosidase in CMV-LacZ C2C12 myoblasts; assay: CMV-LacZ secondary screen in C2C12 myoblasts (β-Gal stabilizing assay); conditions: for CMV-LACZ in Myoblasts, value relative to DMSO: SU9516 analogs, C2C12 CMV-LacZ, N=2; for CMV-LACZ in Myoblasts (β-galactosidase activity relative to DMSO): CMV-LacZ C2C12 myoblasts
In short: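 First, C2C12 myoblasts were transfected with a linearized CMV-LACZ vector and clonal lines selected by FDG β-gal assay. Then cells were exposed to compounds at 0.5, 1, 5, 10, 20 and 40 μM in 96-well format, two replicates each, and β-gal measured.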

[2] = system: α7 integrin (LacZ reporter in α7+/LacZ myotubes); assay: Myotube α7 integrin FDG assay (Burkin assay in myotubes, 96-well); conditions: for Burkin Assay in Myotubes, value relative to DMSO: SU9516 analogs, 96-well, N=3-6
[3] = system: α7 integrin (LacZ reporter in α7βgal+/− myoblasts); assay: Myoblast α7+/LacZ integrin FDG assay (Burkin assay in myoblasts, 96-well); conditions: 96-well; for Burkin Assay in Myoblasts, value relative to DMSO: SU9516 analogs, N=3-6; for Burkin Assay in Myoblasts, signal relative to DMSO: α7+/LacZ myoblasts
[4] = system: β-galactosidase in CMV-LacZ C2C12 myotubes; assay: CMV-LacZ secondary screen in C2C12 myotubes (β-Gal stabilizing assay); conditions: for CMV-LACZ in Myotubes, value relative to DMSO: SU9516 analogs, C2C12 CMV-LacZ, N=2; for CMV-LACZ in Myotubes, signal relative to DMSO: C2C12 CMV-LacZ myotubes, fold relative to DMSO
In short: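 Dose-response runs at 0.5–40 μM (0.5, 1, 5, 10, 20, 40 μM; N=2 per point) used a clonal C2C12 line carrying CMV-LacZ. Cells were assayed as myoblasts or as differentiated myotubes, and β-galactosidase levels were read with the FDG fluorogenic substrate.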

## O=C1Nc2ccccc2/C1=C/c1cccnc1 [MLS000682748-01]
[1]; 0.5 uM
  CMV-LACZ in Myoblasts, value relative to DMSO: 0.9075
[1]; 1 uM
  CMV-LACZ in Myoblasts, value relative to DMSO: 0.9666
[1]; 5 uM
  CMV-LACZ in Myoblasts, value relative to DMSO: 1.0215
[1]; 10 uM
  CMV-LACZ in Myoblasts, value relative to DMSO: 0.9959
[1]; 20 uM
  CMV-LACZ in Myoblasts, value relative to DMSO: 0.3893
[1]; 40 uM
  CMV-LACZ in Myoblasts, value relative to DMSO: 0.2419
[2]; 0.5 uM
  Burkin Assay in Myotubes, value relative to DMSO: 0.9801
[2]; 1 uM
  Burkin Assay in Myotubes, value relative to DMSO: 1.211
[2]; 5 uM
  Burkin Assay in Myotubes, value relative to DMSO: 1.147
[2]; 10 uM
  Burkin Assay in Myotubes, value relative to DMSO: 1.085
[2]; 20 uM
  Burkin Assay in Myotubes, value relative to DMSO: 0.743
[2]; 40 uM
  Burkin Assay in Myotubes, value relative to DMSO: 0.6206
[3]; 0.5 uM
  Burkin Assay in Myoblasts, value relative to DMSO: 1.259
[3]; 1 uM
  Burkin Assay in Myoblasts, value relative to DMSO: 1.162
[3]; 5 uM
  Burkin Assay in Myoblasts, value relative to DMSO: 0.8923
[3]; 10 uM
  Burkin Assay in Myoblasts, value relative to DMSO: 0.765
[3]; 20 uM
  Burkin Assay in Myoblasts, value relative to DMSO: 0.4669
[3]; 40 uM
  Burkin Assay in Myoblasts, value relative to DMSO: 0.2472
[4]; 0.5 uM
  CMV-LACZ in Myotubes, value relative to DMSO: 0.9356
[4]; 1 uM
  CMV-LACZ in Myotubes, value relative to DMSO: 0.8459
[4]; 5 uM
  CMV-LACZ in Myotubes, value relative to DMSO: 0.8790
[4]; 10 uM
  CMV-LACZ in Myotubes, value relative to DMSO: 0.9205
[4]; 20 uM
  CMV-LACZ in Myotubes, value relative to DMSO: 1.1753
[4]; 40 uM
  CMV-LACZ in Myotubes, value relative to DMSO: 1.1071

## Cc1ccc2c(c1)/C(=C/c1ccco1)C(=O)N2 [MLS000682750-01]
[1]; 0.5 uM
  CMV-LACZ in Myoblasts (β-galactosidase activity relative to DMSO): 0.9679
[1]; 1 uM
  CMV-LACZ in Myoblasts (β-galactosidase activity relative to DMSO): 1.0467
[1]; 5 uM
  CMV-LACZ in Myoblasts (β-galactosidase activity relative to DMSO): 0.8717
[1]; 10 uM
  CMV-LACZ in Myoblasts (β-galactosidase activity relative to DMSO): 0.9934
[1]; 20 uM
  CMV-LACZ in Myoblasts (β-galactosidase activity relative to DMSO): 1.1433
[1]; 40 uM
  CMV-LACZ in Myoblasts (β-galactosidase activity relative to DMSO): 1.0404
[2]; myotubes, 0.5 uM
  Burkin Assay in Myotubes, α7 integrin LacZ reporter signal relative to DMSO: 0.9957
[2]; myotubes, 1 uM
  Burkin Assay in Myotubes, α7 integrin LacZ reporter signal relative to DMSO: 0.9939
[2]; myotubes, 5 uM
  Burkin Assay in Myotubes, α7 integrin LacZ reporter signal relative to DMSO: 1.073
[2]; myotubes, 10 uM
  Burkin Assay in Myotubes, α7 integrin LacZ reporter signal relative to DMSO: 0.8839
[2]; myotubes, 20 uM
  Burkin Assay in Myotubes, α7 integrin LacZ reporter signal relative to DMSO: 1.002
[2]; myotubes, 40 uM
  Burkin Assay in Myotubes, α7 integrin LacZ reporter signal relative to DMSO: 0.7064
[3]; 0.5 uM
  Burkin Assay in Myoblasts, signal relative to DMSO: 1.203
[3]; 1 uM
  Burkin Assay in Myoblasts, signal relative to DMSO: 1.02
[3]; 5 uM
  Burkin Assay in Myoblasts, signal relative to DMSO: 1.229
[3]; 10 uM
  Burkin Assay in Myoblasts, signal relative to DMSO: 1.076
[3]; 20 uM
  Burkin Assay in Myoblasts, signal relative to DMSO: 1.124
[3]; 40 uM
  Burkin Assay in Myoblasts, signal relative to DMSO: 1.103
[4]; 0.5 uM
  CMV-LACZ in Myotubes, signal relative to DMSO: 1.0248
[4]; 1 uM
  CMV-LACZ in Myotubes, signal relative to DMSO: 0.9638
[4]; 5 uM
  CMV-LACZ in Myotubes, signal relative to DMSO: 1.1285
[4]; 10 uM
  CMV-LACZ in Myotubes, signal relative to DMSO: 1.0939
[4]; 20 uM
  CMV-LACZ in Myotubes, signal relative to DMSO: 1.1189
[4]; 40 uM
  CMV-LACZ in Myotubes, signal relative to DMSO: 1.0579

## Nc1ncnc(N2CCc3ccccc32)c1[N+](=O)[O-] [MLS000683232-01]
[1]; 0.5 uM
  CMV-LACZ in Myoblasts (β-galactosidase activity relative to DMSO): 0.8043
[1]; 1 uM
  CMV-LACZ in Myoblasts (β-galactosidase activity relative to DMSO): 0.7131
[1]; 5 uM
  CMV-LACZ in Myoblasts (β-galactosidase activity relative to DMSO): 0.5638
[1]; 10 uM
  CMV-LACZ in Myoblasts (β-galactosidase activity relative to DMSO): 0.5224
[1]; 20 uM
  CMV-LACZ in Myoblasts (β-galactosidase activity relative to DMSO): 0.6119
[1]; 40 uM
  CMV-LACZ in Myoblasts (β-galactosidase activity relative to DMSO): 0.8237
[2]; myotubes, 0.5 uM
  Burkin Assay in Myotubes, α7 integrin LacZ reporter signal relative to DMSO: 1.136
[2]; myotubes, 1 uM
  Burkin Assay in Myotubes, α7 integrin LacZ reporter signal relative to DMSO: 1.2778
[2]; myotubes, 5 uM
  Burkin Assay in Myotubes, α7 integrin LacZ reporter signal relative to DMSO: 1.272
[2]; myotubes, 10 uM
  Burkin Assay in Myotubes, α7 integrin LacZ reporter signal relative to DMSO: 1.448
[2]; myotubes, 20 uM
  Burkin Assay in Myotubes, α7 integrin LacZ reporter signal relative to DMSO: 1.4149
[2]; myotubes, 40 uM
  Burkin Assay in Myotubes, α7 integrin LacZ reporter signal relative to DMSO: 1.32
[2]; myotubes, maximum response
  MT FOLD INCREASE: 1.7 fold
[2]; myotubes, nonlinear regression of dose-response curves, read-out: EC50 α7+/LacZ MT
  EC50: 5.3 µM
[3]; 0.5 uM
  Burkin Assay in Myoblasts, signal relative to DMSO: 1.234
[3]; 1 uM
  Burkin Assay in Myoblasts, signal relative to DMSO: 1.199
[3]; 5 uM
  Burkin Assay in Myoblasts, signal relative to DMSO: 1.6445
[3]; 10 uM
  Burkin Assay in Myoblasts, signal relative to DMSO: 1.778
[3]; 20 uM
  Burkin Assay in Myoblasts, signal relative to DMSO: 1.821
[3]; 40 uM
  Burkin Assay in Myoblasts, signal relative to DMSO: 1.654
[4]; 0.5 uM
  CMV-LACZ in Myotubes, signal relative to DMSO: 0.8200
[4]; 1 uM
  CMV-LACZ in Myotubes, signal relative to DMSO: 0.7752
[4]; 5 uM
  CMV-LACZ in Myotubes, signal relative to DMSO: 0.8743
[4]; 10 uM
  CMV-LACZ in Myotubes, signal relative to DMSO: 1.0086
[4]; 20 uM
  CMV-LACZ in Myotubes, signal relative to DMSO: 0.8835
[4]; 40 uM
  CMV-LACZ in Myotubes, signal relative to DMSO: 0.8365
